Results as given in patent publication US12409172B2, “Dosage regimen” (UNION therapeutics A/S, priority 2023, dated 2025).
“And” between values parts separate entries of the source, which are not always exact repeats. Equal entries are not always repeated.

Tests used:
[1] = Population pharmacokinetics (popPK) model for orismilast; set-up: species or system human
Description: All subjects were treated with orismilast as IR capsule, IR solution, IR tablet or MR tablet with available PK samples. Although the modified release tablet was the formulation selected for further studies, the popPK model was also built using the immediate release formulations (IR solution, IR tablet and IR capsule), especially to obtain stable estimates of elimination parameters (clearances) across formulations and obtain a robust model to support the simulation.
PopPK parameters were estimated by non-linear mixed effect modelling using MONOLIX. Mixed effects models describe the influence of both fixed effects and random effects. The random effects are typically used to capture the variability which can be split in residual variability (error) and between-subject variability.
The population model was defined by 4 components: • 1. The structural popPK model components, which defines the PK parameters and describe the plasma concentration-time profiles of orismilast. • 2. The inter-individual random effect model component, which describes the inter-individual variation (IIV) and inter-occasion variation (IOV) in PK parameters after correction for fixed effects. • 3. The residual error (or random effect) model component, which describes the underlying distribution of the error in the measured concentrations. • 4. The covariate model component, which describes the influence of fixed effects (i.e., demographic factors) on PK parameters.
The search for the final model followed the following stepwise strategy: • 1. Selection of the simplest structural model, which predicts the plasma concentration as a function of time and dose, based on smallest objective function (OF) and by the pattern in the residual plots. The best structural model, the most appropriate.IIV and IOV models, and the residual error model, were identified. The structural model was determined using the rich Phase I data from healthy volunteers (LP0058-S01, LP0058-1005, LP0058-1114, LP0058-1362, LP0058-1324 and LP0058-1442). • 2. Preliminary visual check using predictive check approach was applied to sparse data from psoriasis patients (study LP0058-1072) to assess the predictability capacities of the structural model for patient data. • 3. Psoriasis patient data were included in the model and the model was refined or adjusted if necessary. • 4. Graphical exploration of the covariates: between individual covariates and EBE of parameter or random effects. • 5. Determination of the covariate model. • 6. Selection of significant covariates to obtain the FINAL model. • 7. Inclusion of new studies in the model (e.g. UN1500001-203 and CIB1353A101) was performed by repeating steps 2 to 6.
The pre-specified covariates that were suspected a priori of having an influence on PK parameters, were included in the full model and the selection of the final model with relevant covariates were based on the statistical Wald test (keep covariates with p-value <0.05). The influence of body weight on PK parameters was included using fixed standard allometric scales.
The model was evaluated using diagnostic and goodness of fit plots and validated using Visual Predictive Checks. SAS® software V9.4 and Monolix Suite version 2021R1 release were used.
The structural model was parameterised in terms of apparent clearance (CL/F), volume of distribution of central compartment (V1/F), inter-compartmental clearance (Q/F) and volume of distribution for peripheral compartment (V2/F). The absorption was described by a 1st—order rate constant (ka1) for first absorption process, 1st—order rate constant (ka2) for second absorption process, fraction of dose absorbed through the first process (F1) and lag time (tlag2) for the start of the second phase. The relative bioavailability was also added to characterize the difference between the formulations, it was set to 1 for the IR solution, so, the other formulations were expressed relatively to the IR solution. […]

[2] = Chinese healthy volunteer study CIB1353A101: PK; conditions: human, in vivo, oral; CIBI3S3A101 (D1 = 10 mg); N 18; read-out: AUClast, NCA GM (CV %)
[3] = tested on: pruritus (itch) associated with atopic dermatitis; assay: Phase 2b study in atopic dermatitis (Examples 8, 9): ≥4-point improvement in peak pruritus NRS (PPNRS); assay type: in vivo, human
Description: The severity of itch (pruritus) due to AD will be assessed using a horizontal 11-point NRS. Patients will be asked to assess their “worst itching due to AD over the past 24 hours” on an NRS anchored by the terms “no itching” (0) and “worst possible itching” (10). The item will be completed at each visit via an application on an electronic device in the clinic or the patient's own electronic device from baseline through Week 20.
The binary secondary efficacy endpoint, 4-point improvement in the peak pruritis numerical rating scale (“responders”), was analysed using the Mantel-Haenszel (MH) test and Fisher's exact tests, comparing the proportions of PPNRS responders in each active treatment group with placebo (intent-to-treat (ITT) population).
The ITT population included all randomized subjects who received at least 1 dose of orismilast. The treatment group assignment was designated according to initial randomization. The ITT population served as the basis for the analysis of efficacy.
PPNRS assesses the severity of itch (pruritus) due to atopic dermatitis using a horizontal 11-point NRS. […]
In FIG. 34, “Observed” or “Obs” refers to all subjects in the ITT Population with a recorded PPNRS score, i.e. if the PPNRS score is missing the value was not imputed. […]

CYP3A4 = molecular target: T1, CYP3A4 (Homo sapiens, UniProt P08684); assay: CYP3A4 inhibition from clinical studies; assay type: in vivo
T1 construct: from tissue; host or cells: human subjects in vivo (clinical studies); no organ is named
Description: Patients receiving orismilast concurrently with these medicinal • products should be monitored for related AEs, especially if they have a narrow therapeutic window.

T1 sequence (P08684 whole entry): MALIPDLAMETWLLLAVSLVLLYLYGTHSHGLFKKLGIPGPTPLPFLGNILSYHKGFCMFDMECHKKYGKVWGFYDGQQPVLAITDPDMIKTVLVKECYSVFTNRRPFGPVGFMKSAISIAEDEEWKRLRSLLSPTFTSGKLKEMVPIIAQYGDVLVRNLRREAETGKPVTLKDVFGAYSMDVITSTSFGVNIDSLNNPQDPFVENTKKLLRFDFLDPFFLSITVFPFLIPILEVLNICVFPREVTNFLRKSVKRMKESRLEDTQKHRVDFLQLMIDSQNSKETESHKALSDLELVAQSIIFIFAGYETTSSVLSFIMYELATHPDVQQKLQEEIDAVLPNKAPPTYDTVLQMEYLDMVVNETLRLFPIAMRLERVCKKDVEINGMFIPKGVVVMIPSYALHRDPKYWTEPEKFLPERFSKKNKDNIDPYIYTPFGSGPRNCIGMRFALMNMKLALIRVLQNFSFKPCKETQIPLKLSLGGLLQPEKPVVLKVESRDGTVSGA

In the case of O=C(Cc1c(Cl)c[n+]([O-])cc1Cl)c1ccc(OC(F)F)c2c1OC1(CCS(=O)(=O)CC1)O2 [orismilast, 2-(3,5-dichloro-1-oxidopyridin-1-ium-4-yl)-1-[7-(difluoromethoxy)-1′,1′-dioxospiro[1,3-benzodioxole-2,4′-thiane]-4-yl]ethanone], the “variability of the central PK parameters” value [1] was 27% and 34%, the “AUClast GM ratio (popPK/NCA)” value ([1]; 1442 - Part 1 (MR, 30 mg)) was 1.03 and the “AUClast GM ratio (popPK/NCA)” value ([1]; 1442 - Part 2 (Fast, 30 mg)) was 1.14. The “AUClast GM ratio (popPK/NCA)” value ([1]; 1442 - Part 3 (D1 = 10 mg)) was 0.98, the “AUClast GM ratio (popPK/NCA)” value ([1]; 1442 - Part 3 (D17 = 60 mg)) was 0.97 and the “AUClast GM ratio (popPK/NCA)” value ([1]; CIBI3S3A101 (D1 = 10 mg)) was 0.98. The “variability of Q/F” value ([1]; peripheral compartment) was 383%, the “variability of V2/F” value ([1]; peripheral compartment) was 495% and the AUC(0-t) [2] was 167 ng·h/mL. For the same molecule, the “≥4-point reduction in itch NRS / PPNRS at week 2 compared to placebo” value ([3]; all active arms (20, 30, 40 mg BID), MI p<0.05) was “significant”, the “≥4 point reduction in PPNRS at week 16 compared to placebo” value ([3]; all active arms, subjects having severe itch (PPNRS>7) at baseline, Observed p<0.05 or p<0.1) was “statistically significant improvement” and the “inhibition of CYP3A4” value (CYP3A4) was “weak inhibitor”.
